From ChEMBL document CHEMBL3885861, “Open TG-GATES”

Species on record: Rattus norvegicus
Test: Open TG-GATES - Regimen: Daily Repeat
Format: toxicity, organism-based, Sprague-Dawley
Set-up: regimen Daily Repeat, gender Male, age 6 weeks
Conditions: in vivo, po, 15 mg/kg, route gavage, dose level Middle; for APTT / Bas / Eos / Fbg / Hb / Ht / Lym / MCH / MCHC / MCV / Mono / Neu / PT / Plat / RBC / Ret / WBC: tissue Blood; for KIDNEY_L / KIDNEY_R / KIDNEY_TOTAL: tissue Kidney; for LIVER: tissue Liver; for A/G / ALP / ALT / AST / BUN / CRE / Ca / Cl / DBIL / GLC / IP / K / LDH / Na / PL / RALB / TBIL / TC / TG / TP / gamma-GTP: tissue Plasma

`CC1=C(CC(=O)O)c2cc(F)ccc2/C1=C\c1ccc([S+](C)[O-])cc1` (configuration not stated) gave a TERMINAL_BW (72 h, time 3 day) of 235.3 g, an APTT (72 h, time 3 day) of 17.2 s and a Bas (72 h, time 3 day) of 0%. The Eos (72 h, time 3 day) was 1%, the Fbg (72 h, time 3 day) was 309 mg/dL and the Hb (72 h, time 3 day) was 14.2 g/dL. It also gave a Ht (72 h, time 3 day) of 43%, a Lym (72 h, time 3 day) of 75.8% and an MCH (72 h, time 3 day) of 21.2 pg. For the same compound, the MCHC (72 h, time 3 day) was 33%, the MCV (72 h, time 3 day) was 64.3 fL and the Mono (72 h, time 3 day) was 2.6%. It also gave a Neu (72 h, time 3 day) of 20%, a PT (72 h, time 3 day) of 13.7 s and a Plat (72 h, time 3 day) of 120.1 x10_4/uL. For the same compound, the RBC (72 h, time 3 day) was 671.2 x10_4/ul, the Ret (72 h, time 3 day) was 7.1% and the WBC (72 h, time 3 day) was 90 x10_2/uL. It also gave a KIDNEY_L (72 h, time 3 day) of 1 g, a KIDNEY_R (72 h, time 3 day) of 1 g and a KIDNEY_TOTAL (72 h, time 3 day) of 2 g. For the same compound, the LIVER (72 h, time 3 day) was 11.3 g, the A/G (72 h, time 3 day) was 0.9 and the ALP (72 h, time 3 day) was 1549.6 IU/L. For the same compound, the ALT (72 h, time 3 day) was 44.2 IU/L, the AST (72 h, time 3 day) was 72.4 IU/L and the BUN (72 h, time 3 day) was 15.8 mg/dL. For the same compound, the CRE (72 h, time 3 day) was 0.2 mg/dL, the Ca (72 h, time 3 day) was 11.1 mg/dL and the Cl (72 h, time 3 day) was 106 meq/L. For the same compound, the DBIL (72 h, time 3 day) was 0.012 mg/dL, the GLC (72 h, time 3 day) was 185.2 mg/dL and the IP (72 h, time 3 day) was 7.3 mg/dL. For the same compound, the K (72 h, time 3 day) was 4 meq/L, the LDH (72 h, time 3 day) was 93.8 IU/L and the Na (72 h, time 3 day) was 142.8 meq/L. The PL (72 h, time 3 day) was 159 mg/dL, the RALB (72 h, time 3 day) was 2.7 g/dL and the TBIL (72 h, time 3 day) was 0.018 mg/dL. For the same compound, the TC (72 h, time 3 day) was 85.2 mg/dL, the TG (72 h, time 3 day) was 98.6 mg/dL and the TP (72 h, time 3 day) was 5.6 g/dL. The gamma-GTP (72 h, time 3 day) was 1 IU/L, the TERMINAL_BW ([…], time 7 day) was 268.9 g and the TERMINAL_BW ([…], time 14 day) was 338.3 g. The TERMINAL_BW ([…], time 28 day) was 411.4 g, the APTT ([…], time 7 day) was 17.1 s and the Bas ([…], time 7 day) was 0%. The Eos ([…], time 7 day) was 1%, the Fbg ([…], time 7 day) was 295.2 mg/dL and the Hb ([…], time 7 day) was 14.4 g/dL. It also gave a Ht ([…], time 7 day) of 42.6%, a Lym ([…], time 7 day) of 77.6% and an MCH ([…], time 7 day) of 21.2 pg. It also gave an MCHC ([…], time 7 day) of 33.8%, an MCV ([…], time 7 day) of 62.6 fL and a Mono ([…], time 7 day) of 2.4%. For the same compound, the Neu ([…], time 7 day) was 18.8%, the PT ([…], time 7 day) was 13.5 s and the Plat ([…], time 7 day) was 137.1 x10_4/uL. The RBC ([…], time 7 day) was 681.2 x10_4/ul, the Ret ([…], time 7 day) was 6.1% and the WBC ([…], time 7 day) was 102.7 x10_2/uL. The APTT ([…], time 14 day) was 18 s, the Bas ([…], time 14 day) was 0% and the Eos ([…], time 14 day) was 1%. The Fbg ([…], time 14 day) was 325.2 mg/dL, the Hb ([…], time 14 day) was 14.6 g/dL and the Ht ([…], time 14 day) was 42.9%. For the same compound, the Lym ([…], time 14 day) was 73.2%, the MCH ([…], time 14 day) was 20.5 pg and the MCHC ([…], time 14 day) was 34.1%. The MCV ([…], time 14 day) was 60 fL, the Mono ([…], time 14 day) was 2.2% and the Neu ([…], time 14 day) was 23%. It also gave a PT ([…], time 14 day) of 13.7 s, a Plat ([…], time 14 day) of 131.8 x10_4/uL and an RBC ([…], time 14 day) of 715.4 x10_4/ul. It also gave a Ret ([…], time 14 day) of 4.6%, a WBC ([…], time 14 day) of 104.2 x10_2/uL and an APTT ([…], time 28 day) of 20.6 s. The Bas ([…], time 28 day) was 0%, the Eos ([…], time 28 day) was 0.8% and the Fbg ([…], time 28 day) was 263.6 mg/dL. The Hb ([…], time 28 day) was 14.9 g/dL, the Ht ([…], time 28 day) was 45.8% and the Lym ([…], time 28 day) was 76%. It also gave an MCH ([…], time 28 day) of 18.9 pg, an MCHC ([…], time 28 day) of 32.6% and an MCV ([…], time 28 day) of 58 fL. For the same compound, the Mono ([…], time 28 day) was 2%, the Neu ([…], time 28 day) was 20.8% and the PT ([…], time 28 day) was 12.6 s. It also gave a Plat ([…], time 28 day) of 111.8 x10_4/uL, an RBC ([…], time 28 day) of 792.6 x10_4/ul and a Ret ([…], time 28 day) of 3.7%. For the same compound, the WBC ([…], time 28 day) was 112.4 x10_2/uL, the KIDNEY_L ([…], time 7 day) was 1.2 g and the KIDNEY_R ([…], time 7 day) was 1.1 g. For the same compound, the KIDNEY_TOTAL ([…], time 7 day) was 2.3 g, the KIDNEY_L ([…], time 14 day) was 1.3 g and the KIDNEY_R ([…], time 14 day) was 1.2 g. For the same compound, the KIDNEY_TOTAL ([…], time 14 day) was 2.5 g, the KIDNEY_L ([…], time 28 day) was 1.4 g and the KIDNEY_R ([…], time 28 day) was 1.4 g. For the same compound, the KIDNEY_TOTAL ([…], time 28 day) was 2.8 g, the LIVER ([…], time 7 day) was 12.6 g and the LIVER ([…], time 14 day) was 15.2 g. For the same compound, the LIVER ([…], time 28 day) was 17.1 g, the A/G ([…], time 7 day) was 0.9 and the ALP ([…], time 7 day) was 1603.8 IU/L. It also gave an ALT ([…], time 7 day) of 41.2 IU/L, an AST ([…], time 7 day) of 66.8 IU/L and a BUN ([…], time 7 day) of 17.2 mg/dL. For the same compound, the CRE ([…], time 7 day) was 0.2 mg/dL, the Ca ([…], time 7 day) was 11 mg/dL and the Cl ([…], time 7 day) was 104 meq/L. The DBIL ([…], time 7 day) was 0.016 mg/dL, the GLC ([…], time 7 day) was 183 mg/dL and the IP ([…], time 7 day) was 7.3 mg/dL. It also gave a K ([…], time 7 day) of 4.3 meq/L, an LDH ([…], time 7 day) of 87.4 IU/L and a Na ([…], time 7 day) of 141 meq/L. The PL ([…], time 7 day) was 187.6 mg/dL, the RALB ([…], time 7 day) was 2.8 g/dL and the TBIL ([…], time 7 day) was 0.016 mg/dL. For the same compound, the TC ([…], time 7 day) was 91.6 mg/dL, the TG ([…], time 7 day) was 171.6 mg/dL and the TP ([…], time 7 day) was 5.9 g/dL. It also gave a gamma-GTP ([…], time 7 day) of 1 IU/L, an A/G ([…], time 14 day) of 0.9 and an ALP ([…], time 14 day) of 1475.4 IU/L. The ALT ([…], time 14 day) was 42.6 IU/L, the AST ([…], time 14 day) was 65.6 IU/L and the BUN ([…], time 14 day) was 17.4 mg/dL. It also gave a CRE ([…], time 14 day) of 0.3 mg/dL, a Ca ([…], time 14 day) of 10.9 mg/dL and a Cl ([…], time 14 day) of 105.6 meq/L. The DBIL ([…], time 14 day) was 0.018 mg/dL, the GLC ([…], time 14 day) was 183 mg/dL and the IP ([…], time 14 day) was 6.8 mg/dL. The K ([…], time 14 day) was 3.8 meq/L, the LDH ([…], time 14 day) was 75.4 IU/L and the Na ([…], time 14 day) was 143.4 meq/L. It also gave a PL ([…], time 14 day) of 173.4 mg/dL, an RALB ([…], time 14 day) of 2.8 g/dL and a TBIL ([…], time 14 day) of 0.042 mg/dL. For the same compound, the TC ([…], time 14 day) was 81.4 mg/dL, the TG ([…], time 14 day) was 191 mg/dL and the TP ([…], time 14 day) was 6 g/dL. The gamma-GTP ([…], time 14 day) was 1 IU/L, the A/G ([…], time 28 day) was 0.8 and the ALP ([…], time 28 day) was 1137.2 IU/L. For the same compound, the ALT ([…], time 28 day) was 35.8 IU/L, the AST ([…], time 28 day) was 62 IU/L and the BUN ([…], time 28 day) was 18.2 mg/dL. For the same compound, the CRE ([…], time 28 day) was 0.3 mg/dL, the Ca ([…], time 28 day) was 10.7 mg/dL and the Cl ([…], time 28 day) was 103.8 meq/L. The DBIL ([…], time 28 day) was 0.008 mg/dL, the GLC ([…], time 28 day) was 178.4 mg/dL and the IP ([…], time 28 day) was 6.9 mg/dL. For the same compound, the K ([…], time 28 day) was 3.8 meq/L, the LDH ([…], time 28 day) was 64.6 IU/L and the Na ([…], time 28 day) was 142.8 meq/L. The PL ([…], time 28 day) was 153.4 mg/dL, the RALB ([…], time 28 day) was 2.8 g/dL and the TBIL ([…], time 28 day) was 0.076 mg/dL. For the same compound, the TC ([…], time 28 day) was 74.8 mg/dL, the TG ([…], time 28 day) was 162.8 mg/dL and the TP ([…], time 28 day) was 6.2 g/dL. For the same compound, the gamma-GTP ([…], time 28 day) was 1 IU/L.
